Data from patent US12168652B2, “Neuromuscular blocking agents” (The Curators of the University of Missouri, priority 2018, dated 2024).
“Also recorded” adds a separate entry of the source.

Tests used:
[1] = system: rat phrenic nerve, hemi-diaphragm preparation; assay: Rat phrenic nerve hemi-diaphragm preparation, neostigmine reversibility; conditions: FIG. 8, in vitro; for neostigmine reversibility of the loss of strength (muscle weakness): 1 μM neostigmine
Experimental: Male, Sprague-Dawley rats weighing 100-180 g were obtained from Envigo and euthanized by exposure to 4.5% isoflurane followed by exsanguination. Right and left hemi-diaphragms were removed and placed in oxygen bubbled, cold saline until use. The saline contained, in mM, 140 NaCl, 5 KCl, 1.6 CaCl2·6H2O, 1 NaH2PO4, 6 NaHCO3, 5 D-glucose, 10 HEPES, pH 7.2 adjusted with 1 N NaOH, and was bubbled with 100% oxygen at 22° C. The costal cartilage of the hemi-diaphragm was secured to the floor of a 20 mL volume chamber with a metal hook and the crural end attached to a metal hook and thread leading to a force transducer (iWorx Systems, Dover, NH) and a data acquisition program (Labscribe). The phrenic nerve was introduced into a suction electrode and stimulated (pulse width=0.5 msec, supramaximal voltage=1 V) with a train of four, i.e., four stimuli in two seconds, repeated every minute. The first pulse, T1, was used as a measure of muscle strength. […]
In the figure CONTROL is the force of contraction before addition of test substances, TEST is the force after the addition of test substances, NEOSTIG is the force of contraction after the addition of 1 μM neostigmine, ROC is rocuronium, and SUC is succinylcholine.

[2] = target: T1, adult, human muscle, nicotinic acetylcholine receptor (Homo sapiens, UniProt P02708+P11230+Q04844+Q07001); assay: Patch clamp electrophysiology in transfected HEK-293 cells; format: cell-based; conditions: outside-out patch, 10 μM compound, 300 μM acetylcholine, -50 mV; for competition with acetylcholine at the receptor (summary graph): FIG. 9B
T1 construct: expressed in transfected cells; host or cells: HEK-293
Experimental: Patch clamp electrophysiology: HEK-293 cells were transfected with the cDNA for adult, human muscle acetylcholine receptors and prepared for patch clamp recording as described previously. Immediately before the experiment, the culture medium was replace with an extracellular solution (ECS) contains 150 mM NaCl, 5.6 mM KCl, 1.8 mM CaCl2, 1.0 mM MgCl2, and 10 mM HEPES, pH 7.3. Patch pipettes filled with a solution consisting of 140 mM KCl, 5 mM EGTA, 5 mM MgCl2, and 10 mM HEPES, pH 7.3, had resistances of 3 to 4 MΩ. An outside-out patch with a seal resistance of >2 GΩ was excised from a cell and moved into position at the outflow of a HSSE-2 rapid perfusion system (ALA Scientific Instruments, Westbury, NY). The patch was rapidly and transiently perfused with 300 μM acetylcholine to activate >95% of the channels at a holding potential of −50 mV. This was the control trace; the figures show the average of 5 control traces. Subsequently, the same patch was used to test for agonist activity by the carborane compounds by switching to a reservoir containing 300-1000 μM of the compound, repeated 5 times. To test for antagonism, the patch was equilibrated with 10 μM of the compound for >3 s followed by rapid perfusion of 300 μM acetylcholine+compound. Each series of traces using a compound was followed a return to control conditions (recovery) to determine that the control current hadn't changed by more than 20%. The peak current for each series of traces was calculated. The decrease in peak current represented a combination of competitive and open-channel block by the compound. The results are illustrated in FIGS. 9A and 9B.

[3] = system: mice; conditions: FIG. 6; dose response

Compound	mechanism of action (depolarizing or non-depolarizing) from neostigmine reversal [1]	neostigmine reversibility of the loss of strength (muscle weakness) [1]	competition with acetylcholine at the receptor (summary graph) [2]	competition with acetylcholine at the receptor (single compound traces) ([2]; FIG. 9A)	relative potency for loss of mouse grip strength as a function of dose injected [3]
1,2-bis(N, N, N-trimethylpropan-1-aminium)-1,2-closo-carborane di-iodide [compound 1]	non-depolarizing NMBA; also recorded: non-depolarizers	reversed by neostigmine	compete with acetylcholine		
1,7-bis(N, N, N-trimethylpropan-1-aminium)-1,7-closo-carborane di-iodide [compound 2]	non-depolarizing NMBA; also recorded: non-depolarizers	reversed by neostigmine	compete with acetylcholine		
1,12-bis(N, N, N-trimethylpropan-1-aminium)-1,12-closo-carborane di-iodide [compound 3]	non-depolarizing NMBA; also recorded: non-depolarizers	reversed by neostigmine	compete with acetylcholine	competes reversibly with acetylcholine	more potent than compound 1
C=CC[N+]1([C@H]2C[C@H]3[C@@H]4CC[C@H]5C[C@H](O)[C@@H](N6CCOCC6)C[C@]5(C)[C@H]4CC[C@]3(C)[C@H]2OC(C)=O)CCCC1 [rocuronium, Rocuronium bromide, reference compound]		reversed by neostigmine			
C[N+](C)(C)CCOC(=O)CCC(=O)OCC[N+](C)(C)C [succinylcholine, succinylcholine chloride, reference compound]		not reversed by neostigmine			
